Reference: PubChem BioAssay AID1963834 (Molecular Pharmacology Branch, DTP, NCI, 2024)

Tested on: 873145-292-R-J1-PDC complex spheroid viability
Test: Anticancer human tumor 873145-292-R-J1-PDC patient-derived renal clear cell carcinoma cell line growth inhibition [POLQ]
Conditions: for IC50: curve of first compound; for viability, T/C: stronger effect = lower value
Protocol: Multicellular complex tumor spheroid response to Polymerase (POL) inhibitors (novobiocin, ART-558, RP6685) in combination with a variety of drugs and investigational agents in selected tumor cell lines
The POL inhibitors (novobiocin, ART-558, and RP6685) were evaluated both individually and in combination with standard of care and investigational anticancer small molecules within a complex spheroid model of solid tumors. . Complex spheroids include a stromal component modeled by human endothelial cells (HUVEC) and fibroblasts modeled by human mesenchymal stem cells (MSCs). The concentration ranges selected for each drug and investigational agent were based upon clinically achievable concentrations if the clinical Cmax of the agent was known.
Compounds. The drugs and investigational agents: novobiocin (NSC847541), ART-558 (NSC835418), RP-6685 (NSC848927), peposertib (NSC802822), ceralasertib (NSC780249), elimusertib (NSC800525), camonsertib (NSC841442), AZD-1390 (NSC803789), olaparib (NSC753686), talazoparib (NSC767125), rucaparib (NSC756644), sotorasib (NSC818433), MRTX-1133 (NSC836407), SN-38 (NSC673596), topotecan (NSC609699), epotoside (NSC141540), doxorubicin (NSC123127), gemcitabine (NSC613327), 5-fluorouracil (NSC19893), paclitaxel (NSC125973), vemurafenib (NSC761431), MSA-2 (NSC828583), SN-011 (NSC837082), adavosertib (NSC754352), prexasertib (NSC758257), carboplatin (NSC241240) and oxaliplatin (NSC266046), were obtained from the National Cancer Institute (NCI) Developmental Therapeutics Program Chemical Repository (21). The FDA-approved anticancer drug set is available from the Developmental Therapeutics Program at https://dtp.cancer.gov/organization/dscb/obtaining/. […] The stock solutions were prepared in dimethyl sulfoxide (DMSO, Sigma-Aldrich, St. Louis, MO, cat. D2650), except for the platinum compounds which were prepared in saline (Quality Biological, Gaithersburg, MD, cat. 114-055-101), at 800-fold the tested concentration and stored at -70 degrees C prior to their use. All drugs and investigational agents were tested over a range starting from a high concentration at or near the clinical Cmax and decreasing in half-log increments. If the clinical Cmax for an agent had not been determined, the highest concentration tested was 10 microM, except for SN-38, which was tested at a high concentration of 1 microM.
Cell Culture. All cells were maintained in an incubator at 37 degrees C and 5% CO2 with 95% humidity. The PDC lines were cultured according to standard operating procedures established by the NCI PDMR (https://pdmr.cancer.gov). Table 3 of the manuscript, lists the cell lines along with the number of the three cell types plated to form the mct-spheroids and media for tumor cell growth. After thawing, all PDC lines, except 997537-175-T-J1-PDC and 415267-285-R-J2-PDC, were cultured in Matrigel-coated flasks prepared with a working solution of 1X Ham's F-12 nutrient mix, without supplementation (Thermo Fisher Scientific, cat. 11765054), 100 U/mL penicillin-streptomycin (Thermo Fisher Scientific, cat. 15140122), and 2.5% Matrigel (Corning Inc., Corning, NY, cat. 354248) for the first three passages. The two PDC lines 997537-175-T-J1-PDC and 415267-285-R-J2-PDC were cultured on uncoated flasks. The 857933-349-R-J2-PDC line was cultured in 6C/Colon 1B media containing advanced DMEM/F-12 (Thermo Fisher Scientific, cat. 12634028), 10 mM HEPES (Thermo Fisher Scientific, cat. 15630080), 1X GlutaMAX supplement (Thermo Fisher Scientific, cat. 35050061), 0.1 mg/mL primocin (InvivoGen, San Diego, CA, cat. ant-pm-2), 10% defined fetal bovine serum, heat inactivated (HyClone Laboratories Inc., Logan, UT, cat. SH30070.03HI), 50% L-WRN conditioned media (ATCC, cat. CRL-3276), 1.25 mM N-Acetyl-L-cysteine (Sigma-Aldrich, cat. A9165), 10 mM nicotinamide (Sigma-Aldrich, cat. N0636), 1X B-27 supplement (Thermo Fisher Scientific, cat. 17504044), 1X N-2 supplement (Thermo Fisher Scientific, cat. […]

[1] = second compound 0.0316 µM, first compound 0.00316 µM
[2] = second compound 0.0316 µM, first compound 0.01 µM
[3] = second compound 0.0316 µM, first compound 0.0316 µM
[4] = second compound 0.0316 µM, first compound 0.1 µM
[5] = second compound 0.1 µM, first compound 0.00316 µM
[6] = second compound 0.1 µM, first compound 0.01 µM
[7] = second compound 0.1 µM, first compound 0.0316 µM
[8] = second compound 0.1 µM, first compound 0.1 µM
[9] = second compound 0.316 µM, first compound 0.00316 µM
[10] = second compound 0.316 µM, first compound 0.01 µM
[11] = second compound 0.316 µM, first compound 0.0316 µM
[12] = second compound 0.316 µM, first compound 0.1 µM
[13] = second compound 1 µM, first compound 0.00316 µM
[14] = second compound 1 µM, first compound 0.01 µM
[15] = second compound 1 µM, first compound 0.0316 µM
[16] = second compound 1 µM, first compound 0.1 µM
[17] = second compound 3.16 µM, first compound 0.00316 µM
[18] = second compound 3.16 µM, first compound 0.01 µM
[19] = second compound 3.16 µM, first compound 0.0316 µM
[20] = second compound 3.16 µM, first compound 0.1 µM
[21] = second compound 10 µM, first compound 0.00316 µM
[22] = second compound 10 µM, first compound 0.01 µM
[23] = second compound 10 µM, first compound 0.0316 µM
[24] = second compound 10 µM, first compound 0.1 µM
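Also: spheroids exposed to compounds for 7 days before viability readout.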
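For viability, T/C in this document: luminescence signal used as surrogate for viable cell content; 100% = DMSO vehicle control viability.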

Structure (SMILES): COc1cccc(OCCCN)c1-c1cc(Nc2cnc(C#N)cn2)n[nH]1 + Cc1cccc(N(C)C(=O)C2C(O)CCN2c2nc(C)cc(C(F)(F)F)c2C#N)c1
- IC50 (second compound 0.0316 µM): > 1000 nM
- IC50 (second compound 0.1 µM): > 1000 nM
- IC50 (second compound 0.316 µM): > 1000 nM
- IC50 (second compound 1 µM): > 1000 nM
- IC50 (second compound 3.16 µM): > 1000 nM
- IC50 (second compound 10 µM): > 1000 nM
- viability, T/C [1]: 102%
- viability, T/C [2]: 111%
- viability, T/C [3]: 77.8%
- viability, T/C [4]: 69.7%
- viability, T/C (second compound 0.0316 µM, first compound 0.316 µM): 74.8%
- viability, T/C (second compound 0.0316 µM, first compound 1 µM): 78.3%
- viability, T/C [5]: 104%
- viability, T/C [6]: 103%
- viability, T/C [7]: 65.9%
- viability, T/C [8]: 73.7%
- viability, T/C (second compound 0.1 µM, first compound 0.316 µM): 66.5%
- viability, T/C (second compound 0.1 µM, first compound 1 µM): 82.1%
- viability, T/C [9]: 95.5%
- viability, T/C [10]: 91.5%
- viability, T/C [11]: 72.7%
- viability, T/C [12]: 73.9%
- viability, T/C (second compound 0.316 µM, first compound 0.316 µM): 75.6%
- viability, T/C (second compound 0.316 µM, first compound 1 µM): 83%
- viability, T/C [13]: 98.2%
- viability, T/C [14]: 90.3%
- viability, T/C [15]: 77.5%
- viability, T/C [16]: 70.8%
- viability, T/C (second compound 1 µM, first compound 0.316 µM): 81.8%
- viability, T/C (second compound 1 µM, first compound 1 µM): 79.1%
- viability, T/C [17]: 98.9%
- viability, T/C [18]: 91.7%
- viability, T/C [19]: 84.7%
- viability, T/C [20]: 82.3%
- viability, T/C (second compound 3.16 µM, first compound 0.316 µM): 67.7%
- viability, T/C (second compound 3.16 µM, first compound 1 µM): 77.3%
- viability, T/C [21]: 88.1%
- viability, T/C [22]: 93.6%
- viability, T/C [23]: 91.2%
- viability, T/C [24]: 74.7%
- viability, T/C (second compound 10 µM, first compound 0.316 µM): 88.6%
- viability, T/C (second compound 10 µM, first compound 1 µM): 91.8%

Structure (SMILES): Cn1ncnc1[C@H]1c2n[nH]c(=O)c3cc(F)cc(c23)N[C@@H]1c1ccc(F)cc1 + Cc1cccc(N(C)C(=O)C2C(O)CCN2c2nc(C)cc(C(F)(F)F)c2C#N)c1
- IC50 (second compound 0.0316 µM): > 100 nM
- IC50 (second compound 0.1 µM): > 100 nM
- IC50 (second compound 0.316 µM): > 100 nM
- IC50 (second compound 1 µM): > 100 nM
- IC50 (second compound 3.16 µM): > 100 nM
- IC50 (second compound 10 µM): > 100 nM
- viability, T/C (second compound 0.0316 µM, first compound 0.000316 µM): 104%
- viability, T/C (second compound 0.0316 µM, first compound 0.001 µM): 94%
- viability, T/C [1]: 102%
- viability, T/C [2]: 97.5%
- viability, T/C [3]: 95.7%
- viability, T/C [4]: 98%
- viability, T/C (second compound 0.1 µM, first compound 0.000316 µM): 104%
- viability, T/C (second compound 0.1 µM, first compound 0.001 µM): 103%
- viability, T/C [5]: 91.6%
- viability, T/C [6]: 93.9%
- viability, T/C [7]: 105%
- viability, T/C [8]: 88.5%
- viability, T/C (second compound 0.316 µM, first compound 0.000316 µM): 112%
- viability, T/C (second compound 0.316 µM, first compound 0.001 µM): 99%
- viability, T/C [9]: 87.6%
- viability, T/C [10]: 89.6%
- viability, T/C [11]: 91.7%
- viability, T/C [12]: 89.3%
- viability, T/C (second compound 1 µM, first compound 0.000316 µM): 102%
- viability, T/C (second compound 1 µM, first compound 0.001 µM): 95.2%
- viability, T/C [13]: 105%
- viability, T/C [14]: 97%
- viability, T/C [15]: 97.7%
- viability, T/C [16]: 96.3%
- viability, T/C (second compound 3.16 µM, first compound 0.000316 µM): 97%
- viability, T/C (second compound 3.16 µM, first compound 0.001 µM): 96.3%
- viability, T/C [17]: 105%
- viability, T/C [18]: 93.5%
- viability, T/C [19]: 99.8%
- viability, T/C [20]: 91.8%
- viability, T/C (second compound 10 µM, first compound 0.000316 µM): 103%
- viability, T/C (second compound 10 µM, first compound 0.001 µM): 89.7%
- viability, T/C [21]: 109%
- viability, T/C [22]: 90.3%
- viability, T/C [23]: 97.8%
- viability, T/C [24]: 86.9%
